Source: PMC3876054, “Tyrosol and Its Analogues Inhibit Alpha-Melanocyte-Stimulating Hormone Induced Melanogenesis” (International Journal of Molecular Sciences, 2013)

Columns and labels:
mushroom tyrosinase [1] = target: T1, mushroom tyrosinase (Agaricus bisporus, UniProt C7FF04); experiment: spectrophotometric dopachrome assay with L-tyrosine; % inhibition at […]; type: biochemical; conditions: read-out: % inhibition at 4 mM
T1 construct: gene PPO3

mushroom tyrosinase [2] = target: T1, mushroom tyrosinase; experiment: as above; type: biochemical; conditions: read-out: % inhibition at 0.4 mM

T1 sequence (C7FF04 2-392): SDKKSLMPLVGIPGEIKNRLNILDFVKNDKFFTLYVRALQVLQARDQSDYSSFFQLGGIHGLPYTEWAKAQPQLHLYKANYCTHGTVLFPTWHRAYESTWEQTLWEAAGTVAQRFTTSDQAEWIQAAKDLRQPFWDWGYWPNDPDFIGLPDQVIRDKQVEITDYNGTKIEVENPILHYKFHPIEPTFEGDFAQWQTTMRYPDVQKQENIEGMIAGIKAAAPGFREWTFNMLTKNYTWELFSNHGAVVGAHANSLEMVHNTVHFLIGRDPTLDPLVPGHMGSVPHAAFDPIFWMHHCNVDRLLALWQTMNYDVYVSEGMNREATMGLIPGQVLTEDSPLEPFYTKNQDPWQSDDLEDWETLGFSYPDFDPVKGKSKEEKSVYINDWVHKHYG

Row | SMILES | inhibition at 4000 µM (mushroom tyrosinase [1]) [%] | inhibition at 400 µM (mushroom tyrosinase [2]) [%]
1 | OCCc1ccc(O)cc1 [compound 1, tyrosol] | 42.5 | 
2 | OCCc1cccc(O)c1 [compound 2, 2-(3-hydroxyphenyl)ethanol] | 45.3 | 
3 | Cc1ccc(CCO)cc1 [compound 10, 2-(4-methylphenyl)ethanol] | 46.7 | 
4 | OC[C@H]1O[C@@H](OCCc2ccc(O)cc2)[C@H](O)[C@@H](O)[C@@H]1O [compound 11, salidroside] |  | 22.2
